This passage reports concentration, Kp and IC50 results from patent US9249163B2, “PDE10a inhibitors for the treatment of type II diabetes” (Janssen Pharmaceutica, NV, priority 2013, dated 2016).

The nature of data set [1]: PDE10a-perfused brain permeability study (plasma and brain concentrations). The note with it: male, Sprague-Dawley, rat; for Kp at 2 h: brain/plasma.
Experimental: Drug administration by oral gavage, subcutaneous injection or intravenous was carried out using male Sprague Dawley rats under IACUC protocol (SH-MET3010). Male Sprague Dawley rats (Charles River) ˜300-350 g were maintained on a 4% standard rodent diet (Test Diet 5001). They are allowed ad libitum access to water and food. Room temperature was maintained at 64° F. and humidity at 30-70%.
Three animals per compound were provided a dose of 2 mg/mL in 20% HpbCD/Tris pH 8 by tail i.v. or 30 mpk p.o. or s.c. in 20% HpbCD/Tris pH 8, with PDE10a antagonists. A first blood sample was collected at 30 min via retro-orbital sinus (anesthetic by 70% CO2/30% O2) into heparinzed plasma separator tubes. The blood was centrifuged and 100 uL plasma was placed into a 96 well plate and saved on dry ice.
After the 120 min, the final blood sample was collected via retro-orbital sinus under anesthesia by IP 0.5 cc injection of a 4/1 mixture of Ketaset: AnaSed [(prepared 10 mL Ketaset (100 mg/mL Ketamine)+2.5 mL AnaSed (20 mg/mL Xylazine)]. The rats were then perfused with 400 mL heparinized saline (10,000 units/L) through the left ventricle of the heart; the brains were then removed (not including the medulla), weighed and homogenized in PBS (4 mL/g tissue). The samples were stored at −80° C. and submitted for chemical analysis of blood and brain concentrations. Endpoints of sample analysis consists of the plasma concentrations at 30 and 120 min, plus brain concentrations at 120 min.
Data set [2] addresses Rat recombinant PDE10a (rPDE10a) (Rattus norvegicus (Rat), UniProt Q9QYJ6). The data set is described as follows: In vitro assay PDE10a (rat recombinant PDE10a, SPA). The format is biochemical. Conditions: 60 nM cAMP, 60 min at rt, read-out: rPDE10a2 IC50. In outline:
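Rat PDE10a expressed in Sf9 cells (baculovirus) and Ni-sepharose purified. Incubated with compound for 60 min at rt in 50 mM Tris pH 7.8, 8.3 mM MgCl2, 1.7 mM EGTA with 60 nM cAMP plus 0.008 μCi ^3H-cAMP (final), 1% DMSO. Read-out by PDE SPA bead scintillation counting (cpm), no-enzyme blank.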

The target in data set [3] is Human recombinant PDE10A2 (Homo sapiens (Human), UniProt Q9Y233). As to the kind of experiment: In vitro hPDE10a (human recombinant PDE10A2, scintillation proximity assay). The format is biochemical. The note with it: human recombinant PDE10A2, 60 nM cAMP, 60 min at room temperature; read-out: hPDE10a2 IC50.

Where a name gives a salt, the structure may show the parent alone.

Sequence of Human recombinant PDE10A2 (Q9Y233 267-1055): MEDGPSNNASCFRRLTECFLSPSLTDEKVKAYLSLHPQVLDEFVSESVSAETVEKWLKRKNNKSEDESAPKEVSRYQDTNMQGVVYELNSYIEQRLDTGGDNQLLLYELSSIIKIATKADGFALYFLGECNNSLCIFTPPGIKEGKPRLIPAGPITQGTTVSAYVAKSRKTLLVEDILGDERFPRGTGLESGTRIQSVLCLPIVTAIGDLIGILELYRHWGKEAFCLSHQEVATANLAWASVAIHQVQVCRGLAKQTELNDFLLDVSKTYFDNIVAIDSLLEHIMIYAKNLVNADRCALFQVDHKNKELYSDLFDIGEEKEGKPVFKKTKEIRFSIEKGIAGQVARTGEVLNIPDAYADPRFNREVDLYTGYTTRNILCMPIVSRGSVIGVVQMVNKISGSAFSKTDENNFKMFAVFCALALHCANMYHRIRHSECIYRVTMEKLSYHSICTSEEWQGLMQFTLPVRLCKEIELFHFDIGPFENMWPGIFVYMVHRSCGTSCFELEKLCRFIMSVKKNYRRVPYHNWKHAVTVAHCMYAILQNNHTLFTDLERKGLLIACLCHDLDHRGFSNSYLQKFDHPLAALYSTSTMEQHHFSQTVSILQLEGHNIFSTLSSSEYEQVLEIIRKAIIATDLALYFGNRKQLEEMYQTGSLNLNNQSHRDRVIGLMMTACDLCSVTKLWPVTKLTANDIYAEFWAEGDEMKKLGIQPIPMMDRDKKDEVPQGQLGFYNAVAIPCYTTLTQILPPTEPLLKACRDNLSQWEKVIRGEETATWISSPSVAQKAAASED
Sequence of Rat recombinant PDE10a (rPDE10a) (Q9QYJ6 whole entry): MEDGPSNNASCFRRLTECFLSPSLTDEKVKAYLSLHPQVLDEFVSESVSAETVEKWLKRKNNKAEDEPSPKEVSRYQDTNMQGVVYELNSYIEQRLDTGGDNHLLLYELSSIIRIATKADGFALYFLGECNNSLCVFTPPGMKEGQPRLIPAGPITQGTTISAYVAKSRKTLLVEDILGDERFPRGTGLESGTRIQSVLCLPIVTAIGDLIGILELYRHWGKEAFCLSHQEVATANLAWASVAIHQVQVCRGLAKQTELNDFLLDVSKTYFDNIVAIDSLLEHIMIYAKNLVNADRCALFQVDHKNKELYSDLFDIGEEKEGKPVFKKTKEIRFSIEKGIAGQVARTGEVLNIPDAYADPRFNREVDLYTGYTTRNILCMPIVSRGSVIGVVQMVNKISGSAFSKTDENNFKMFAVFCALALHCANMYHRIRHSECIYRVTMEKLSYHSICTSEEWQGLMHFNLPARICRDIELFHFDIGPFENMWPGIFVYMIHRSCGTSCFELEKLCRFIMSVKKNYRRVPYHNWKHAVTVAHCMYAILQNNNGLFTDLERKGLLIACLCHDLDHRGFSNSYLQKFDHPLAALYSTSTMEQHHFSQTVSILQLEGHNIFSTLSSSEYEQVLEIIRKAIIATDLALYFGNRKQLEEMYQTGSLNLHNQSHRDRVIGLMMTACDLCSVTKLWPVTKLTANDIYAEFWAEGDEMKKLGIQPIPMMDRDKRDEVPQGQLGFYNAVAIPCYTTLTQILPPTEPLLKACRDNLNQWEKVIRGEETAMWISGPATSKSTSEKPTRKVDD

As to `c1ccc2nc(OCc3cn4c(-c5ccc(N6CCNCC6)nc5)cnc(N5CCOCC5)c4n3)ccc2c1` [Cpd 126, 4-(5-(6-(piperazin-1-yl)pyridin-3-yl)-2-((quinolin-2-yloxy)methyl)imidazo[1,2-a]pyrazin-8-yl)morpholine methane sulfonic acid salt], the concentration at 2 h in data set [1] (brain) worked out at 49.3 ng/g; in data set [1] (plasma) it was 22.4 ng/mL. For the same compound, the Kp (commonly tissue or fluid exposure divided by exposure in the circulation) at 2 h in data set [1] was determined as 2.26. Also, the figures for the IC50 in data set [2] and in data set [3] were 13 nM and 34 nM, respectively.
The corresponding values for `Cc1ccc(-c2cnc(N3CCOCC3)c3nc(COc4ccc5ccccc5n4)cn23)cn1` [Cpd 128, 4-(5-(6-Methylpyridin-3-yl)-2-((quinolin-2-yloxy)methyl)imidazo[1,2-a]pyrazin-8-yl)morpholine methane sulfonic acid salt] are 1.85 ng/g, 16.4 ng/mL, 0.58, 31 nM and 30 nM.
With `c1cncc(-c2cnc(N3CCOCC3)c3nc(COc4ccc5ccccc5n4)cn23)c1` [Cpd 129, 4-(5-(Pyridin-3-yl)-2-((quinolin-2-yloxy)methyl)imidazo[1,2-a]pyrazin-8-yl)morpholine methane sulfonic acid salt], the concentration at 2 h amounted to 21.9 ng/g in data set [1] (brain) and 11 ng/mL in data set [1] (plasma). For the same compound, the partition ratio (Kp) at 2 h in data set [1] was determined as 2.07. The IC50 (commonly the concentration that gives 50% inhibition) was 27 nM in data set [2] and 31 nM in data set [3].
Take `c1ccc2nc(OCc3cn4c(-c5ccc(N6CCOCC6)nc5)cnc(N5CCOCC5)c4n3)ccc2c1` [Cpd 131, 4-(5-(8-Morpholino-2-((quinolin-2-yloxy)methyl)imidazo[1,2-a]pyrazin-5-yl)pyridin-2-yl)morpholine]: the concentration at 2 h in data set [1] (brain) turned out to be 57.3 ng/g; in data set [1] (plasma), 28.1 ng/mL. Further, in data set [1], the Kp at 2 h worked out at 2.04. Moreover, the IC50 came to 11 nM in data set [2] and 51 nM in data set [3].
